From patent US20020094522A1, “Means and methods for monitoring non-nucleoside reverse transcriptase inhibitor antiretroviral therapy and guiding therapeutic decisions in the treatment of HIV/AIDS” (priority 2000, published 2002)

How the values were obtained:
[1] = test system: RTV-1058 Clone 4 (K103N and Y188L); assay: Phenotypic susceptibility assay, RTV-1058 clone 4; assay type: cell-based, HIV-1
Experimental: The resistance test vectors containing a functional luciferase gene cassette were constructed and host cells were transfected with the resistance test vector DNA. The resistant test vectors contained patient-derived reverse transcriptase and protease sequences that were either susceptible or resistant to the antiretroviral agents, such as nucleoside reverse transcriptase inhibitors, non-nucleoside reverse transcriptase inhibitors and protease inhibitors. […] The IC50 values were determined by plotting percent drug inhibition vs. log10 drug concentration.
(§1) Host cells were seeded in 10-cm-diameter dishes and were transfected several days after plating with resistance test vector plasmid DNA and the envelope expression vector. […] HIV capsid protein (p24) levels in the harvested cell culture media were determined by an EIA method as described by the manufacturer (SIAC; Frederick, Md.). […] The inhibitory effect of the drug was determined using the following equation: […]
A resistance test vector was constructed as described in Example 1 from a patient sample designated 98-1058. […] An IC50 was determined for the resistance test vector pool for each drug tested.

[2] = test system: RTV-675 (patient sample 98-675); assay: Phenotypic susceptibility assay, RTV-675; assay type: cell-based, HIV-1; settings: RTV-675, patient-derived pool
Experimental: (§2) Transfections were performed using a calcium-phosphate precipitation procedure. […] Cell lysates were assayed for luciferase activity (FIG. 3).
(§3) The drug inhibition curves are shown in (FIG. 3).
A resistance test vector was constructed as described in Example 1 from a patient sample designated 98-675. This patient had been previously treated with ddI, AZT, and 3TC (NRTIs), and saquinavir and nelfinavir (PRIs). Isolation of viral RNA and RT/PCR was used to generate a patient derived segment that comprised viral sequences coding for all of PR and aa 1-313 of RT. The PDS was inserted into an indicator gene viral vector to generate a resistance test vector designated RTV-675. RTV-675 was then tested in a phenotypic assay to determine accurately and quantitatively the level of susceptibility to a panel of anti-retroviral drugs. […] The pattern of susceptibility to all of the drugs tested was examined and compared to known patterns of susceptibility.

[3] = test system: RTV-644 (patient sample 97-644 / 98-644); assay: Phenotypic susceptibility assay, RTV-644; assay type: cell-based, HIV-1; settings: for susceptibility/resistance compared to reference virus: RTV-644, Example 5; for fold decrease in susceptibility (IC50): RTV-644, patient-derived pool
Excerpt: (§4) The resistance test vectors containing a functional luciferase gene cassette were constructed and host cells were transfected with the resistance test vector DNA. The resistant test vectors contained patient-derived reverse transcriptase and protease sequences that were either susceptible or resistant to the antiretroviral agents, such as nucleoside reverse transcriptase inhibitors, non-nucleoside reverse transcriptase inhibitors and protease inhibitors. The resistance test vector viral particles produced by transfecting the resistance test vector DNA into host cells, either in the presence or absence of protease inhibitors, were used to infect target host cells grown either in the absence of NRTI or NNRTI or in the presence of increasing concentrations of the drug. The amount of luciferase activity produced in infected target host cells in the presence of drug was compared to the amount of luciferase produced in infected target host cells in the absence of drug. Drug resistance was measured as the amount of drug required to inhibit by 50% the luciferase activity detected in the absence of drug (inhibitory concentration 50%, IC50). The IC50 values were determined by plotting percent drug inhibition vs. log10 drug concentration.
Host cells were seeded in 10-cm-diameter dishes and were transfected several days after plating with resistance test vector plasmid DNA and the envelope expression vector. Transfections were performed using a calcium-phosphate precipitation procedure. The cell culture media containing the DNA precipitate was replaced with fresh medium, from one to 24 hours, after transfection. Cell culture media containing resistance test vector viral particles was harvested one to four days after transfection and was passed through a […] filter before being stored at −80° C. HIV capsid protein (p24) levels in the harvested cell culture media were determined by an EIA method as described by the manufacturer (SIAC; Frederick, Md.). Before infection, target cells (293 and 293/T) were plated in cell culture media. Control infections were performed using cell culture media from mock transfections (no DNA) or transfections containing the resistance test vector plasmid DNA without the envelope expression plasmid. One to three or more days after infection the media was removed and cell lysis buffer (Promega) was added to each well. […] The inhibitory effect of the drug was determined using the following equation: […]
Isolation of viral RNA and RT/PCR was used to generate a patient derived segment that comprised viral sequences coding for all of PR and amino acids 1-313 of RT. […] An IC50 was determined for each drug tested. […]

[4] = test system: RTV-209 (patient sample 97-209); assay: Phenotypic susceptibility assay, RTV-209; assay type: cell-based, HIV-1; settings: RTV-209, patient-derived pool
Experimental: as §2, §3
A resistance test vector was constructed as described in Example 1 from a patient sample designated 97-209. This patient had been previously treated with AZT, ddI, d4T and 3TC (NRTIs), indinavir (a PRIs) and adefovir. Isolation of viral RNA and RT/PCR was used to generate a patient derived segment that comprised viral sequences coding for all of PR and aa 1-313 of RT. The PDS was inserted into an indicator gene viral vector to generate resistance test vector designated RTV-209. RTV-209 was then tested in a phenotypic assay to determine accurately and quantitatively the level of susceptibility to a panel of anti-retroviral drugs. […] An IC50 was determined for the resistance test vector pool for each drug tested. […]. The pattern of susceptibility to all of the drugs tested was examined and compared to known patterns of susceptibility.

[5] = test system: patient 780 virus (RT K103N, P225H); assay: Phenotypic susceptibility assay, patient 780; assay type: cell-based, HIV; settings: patient 780, FIG. 8B
Excerpt: as §4, with “The amount of luciferase activity produced in infected target host cells in the presence of drug was compared to the amount of luciferase produced in infected target host cells in the absence of drug. Drug resistance was measured as the amount of drug required to inhibit by 50% the luciferase activity detected in the absence of drug (inhibitory concentration 50%, IC50).” left out
as §1

[6] = test system: P225H-RTV (HIV reverse transcriptase P225H); assay: Phenotypic susceptibility assay, P225H-RTV; assay type: cell-based, HIV-1; settings: P225H mutation alone
Experimental: as §2, §3
Resistance test vectors were constructed containing the P225H mutation alone and in combination with other known drug resistance mutations (K103N, Y181C) known to modulate the HIV susceptibility to NNRTIs. […] (Sakar G and Sommar SS (1994) Biotechniques 8(4), 404-407). […] The pattern of phenotypic susceptibility to the NNRTI, delavirdine in the P225H-RTV was altered as compared to wild type.

[7] = test system: RTV-964 (patient sample 98-964); assay: Phenotypic susceptibility assay, RTV-964; assay type: cell-based, HIV-1; settings: RTV-964, patient-derived pool
Experimental: as §2, §3
A resistance test vector was constructed as described in Example 1 from a patient sample designated 98-964. […] Isolation of viral RNA and RT/PCR was used to generate a patient derived segment that comprised viral sequence coding for all of PR and aa 1-313 of RT. The PDS was inserted into an indicator gene viral vector to generate a resistance test vector designated RTV-964. RTV-964 was then tested in a phenotypic assay to determine accurately and quantitatively the level of susceptibility to a panel of anti-retroviral drugs. […] An IC50 was determined for the resistance test vector pool for each drug tested. The pattern of susceptibility to all of the drugs tested was examined and compared to known patterns of susceptibility.

| SMILES | fold loss of susceptibility (IC50) [1] | fold decrease in susceptibility (IC50) [2] | susceptibility/resistance compared to reference virus [3] | fold decrease in susceptibility (IC50) [3] | fold decrease in susceptibility (IC50) [4] | susceptibility/resistance profile [5] | change in susceptibility compared to wild type control RTV [6] | fold decrease in susceptibility (IC50) [7] |
| --- | --- | --- | --- | --- | --- | --- | --- | --- |
| Cc1ccnc2c1NC(=O)c1cccnc1N2C1CC1 [nevirapine] | greater than 800 fold | 6 fold | resistant to nevirapine | 600 fold | greater than 800 fold | reduced susceptibility | No significant change in nevirapine susceptibility | 750 fold |
| CC(C)Nc1cccnc1N1CCN(C(=O)c2cc3cc(NS(C)(=O)=O)ccc3[nH]2)CC1 [delavirdine] | 85 fold | 2.1 fold | little or no resistance to delavirdine | 2.5 fold | 75 fold | reduced susceptibility | more susceptible to delavirdine than the wild type control RTV | 10 fold |
